Assay results from patent US20240262819A1, “NOVEL COMPOUNDS HAVING INHIBITORY ACTIVITY AGAINST GLUCOSYLCERAMIDE SYNTHASE OR PHARMACEUTICALLY ACCEPTABLE SALT THEREOF, PROCESSES FOR PREPARING THE SAME, AND PHARMACEUTICAL COMPOSITIONS COMPRISING THE SAME” (YUHAN CORPORATION, priority 2021, published 2024).
Where two headings read alike, the source gives them in different places.

Key:
[1] = test system: GM1 production in Jurkat cells; assay: cells; format: cell-based
[2] = biological target: glucosylceramide synthase (GCS) (Homo sapiens (Human), UniProt Q16739); assay: Evaluation of inhibitory activities against GCS (A549 cell lysate, NBD C6-ceramide, HPLC); format: biochemical
In short: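 GCS activity in A549 cell lysate (50 mM HEPES, pH 7.3) with NBD C6-ceramide, reacted 90 min at 37 °C. Lipids were chloroform/methanol-extracted and separated by normal-phase HPLC with fluorescence detection (ex 470/em 530 nm). GlcCer fraction of peak area was normalized between DMSO and ibiglustat, and IC50 obtained by curve fitting.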

[3] = Evaluation of blood-brain barrier (BBB) permeability through oral administration; format: in vivo, mice; conditions: mice, oral, dose 30 mg/kg, 4 hr; for Kp at 4 h / concentration at 4 h: mouse, in vivo; for Kp at 4 h: read-out: Mean brain-plasma drug ratio at 4 hr
In short: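 Mice dosed orally at 10 or 30 mg/10 ml/kg, suspended in 0.5% methyl cellulose with 0.2% Tween 80. Plasma and forebrain homogenate taken 4 hours post-dose, drug measured by LC-MS/MS; brain/plasma ratio calculated from tissue concentrations.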

[4] = read-out: Mean drug concentrations in brain tissue at 4 hr
[5] = read-out: Mean drug concentrations in plasma at 4 hr
[6] = % GCS activity, A549 cell lysate, 37° C. for 90 minutes, read-out: IC50

Chain of glucosylceramide synthase (GCS) (Q16739 whole entry): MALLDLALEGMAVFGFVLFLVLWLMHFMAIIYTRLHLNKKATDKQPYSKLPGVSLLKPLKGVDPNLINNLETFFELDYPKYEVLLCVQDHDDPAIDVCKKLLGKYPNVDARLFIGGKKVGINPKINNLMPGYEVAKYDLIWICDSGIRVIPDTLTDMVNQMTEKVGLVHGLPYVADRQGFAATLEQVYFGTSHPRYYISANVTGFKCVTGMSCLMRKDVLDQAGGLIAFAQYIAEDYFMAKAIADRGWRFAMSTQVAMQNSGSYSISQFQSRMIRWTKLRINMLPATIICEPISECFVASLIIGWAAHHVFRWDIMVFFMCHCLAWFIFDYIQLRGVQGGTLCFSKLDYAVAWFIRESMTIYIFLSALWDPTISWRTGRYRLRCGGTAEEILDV

CC(C)Oc1ccc(-c2cc3c(cc2F)[C@H](NC(=O)O[C@@H]2CN4CCC2CC4)C(C)(C)C3)c(Cl)c1 [Example 92, (S)-quinuclidin-3-yl((R)-5-(2-chloro-4-isopropoxyphenyl)-6-fluoro-2,2-dimethyl-2,3-dihydro-1H-inden-1-yl)carbamate]
IC50 ([1]; Homo sapiens, Jurkat, 72 h): 1.16 nM
IC50 [2]: 0.07 nM
Kp at 4 h [3]: 4.13
concentration at 4 h [3, 4]: 2230 ng/g
concentration at 4 h [3, 5]: 545 ng/mL

Cc1cc(OC(C)C)ccc1-c1cc2c(cc1F)[C@H](NC(=O)O[C@@H]1CN3CCC1CC3)C(C)(C)C2 [Example 96, (S)-quinuclidin-3-yl((R)-6-fluoro-5-(4-isopropoxy-2-methylphenyl)-2,2-dimethyl-2,3-dihydro-1H-inden-1-yl)carbamate]
IC50 ([1]; Homo sapiens, Jurkat, 72 h): 0.76 nM
IC50 [2]: 0.08 nM
Kp at 4 h [3]: 6.24
concentration at 4 h [3, 4]: 5360 ng/g
concentration at 4 h [3, 5]: 864 ng/mL

CCOc1ccc(-c2cc3c(cc2F)[C@H](NC(=O)O[C@@H]2CN4CCC2CC4)C(C)(C)C3)c(Cl)c1 [Example 104, (S)-quinuclidin-3-yl((R)-5-(2-chloro-4-ethoxyphenyl)-6-fluoro-2,2-dimethyl-2,3-dihydro-1H-inden-1-yl)carbamate]
IC50 ([1]; Homo sapiens, Jurkat, 72 h): 1.4 nM
IC50 [2]: 0.1 nM
Kp at 4 h [3]: 3.76
concentration at 4 h [3, 4]: 5180 ng/g
concentration at 4 h [3, 5]: 1380 ng/mL

CCCOc1c(C)cc(-c2ccc3c(c2)CCC(C)(C)[C@H]3NC(=O)O[C@@H]2CN3CCC2CC3)cc1C [Example 148, (S)-quinuclidin-3-yl((R)-6-(3,5-dimethyl-4-propoxyphenyl)-2,2-dimethyl-1,2,3,4-tetrahydronaphthalen-1-yl)carbamate]
IC50 ([1]; Homo sapiens, Jurkat, 72 h): 8.86 nM
IC50 [2]: 1.6 nM
Kp at 4 h [3]: 1.82
concentration at 4 h [3, 4]: 1680 ng/g
concentration at 4 h [3, 5]: 951 ng/mL

CC(C)Oc1ccc(-c2ccc3c(c2)CCC(C)(C)[C@H]3NC(=O)O[C@@H]2CN3CCC2CC3)cc1Cl [Example 150, (S)-quinuclidin-3-yl((R)-6-(3-chloro-4-isopropoxyphenyl)-2,2-dimethyl-1,2,3,4-tetrahydronaphthalen-1-yl) carbamate]
IC50 ([1]; read-out: IC50): 3.27 nM
IC50 [2, 6]: 1.26 nM
Mean brain-plasma drug ratio at 4 hr [3]: 1.471
Mean drug concentrations in brain tissue at 4 hr [3]: 1520.5 ng/g
Mean drug concentrations in plasma at 4 hr [3]: 1065 ng/mL

COc1ccc(-c2ccc3c(c2)CCC(C)(C)[C@H]3NC(=O)O[C@@H]2CN3CCC2CC3)c(F)c1 [Example 151, (S)-quinuclidin-3-yl((R)-6-(2-fluoro-4-methoxyphenyl)-2,2-dimethyl-1,2,3,4-tetrahydronaphthalen-1-yl) carbamate]
IC50 ([1]; read-out: IC50): 5.2 nM
IC50 [2, 6]: 0.49 nM
Mean brain-plasma drug ratio at 4 hr [3]: 2.04
Mean drug concentrations in brain tissue at 4 hr [3]: 2441.3 ng/g
Mean drug concentrations in plasma at 4 hr [3]: 1196.4 ng/mL

CCc1cccc(-c2ccc3c(c2)CCC(C)(C)[C@H]3NC(=O)O[C@@H]2CN3CCC2CC3)c1 [Example 158, (S)-quinuclidin-3-yl((R)-6-(3-ethylphenyl)-2,2-dimethyl-1,2,3,4-tetrahydronaphthalen-1-yl)carbamate]
IC50 ([1]; Homo sapiens, Jurkat, 72 h): 1.1 nM
IC50 [2]: 0.45 nM
Kp at 4 h [3]: 3.67
concentration at 4 h [3, 4]: 3720 ng/g
concentration at 4 h [3, 5]: 1020 ng/mL

CC(C)Oc1ccc(-c2ccc3c(c2)CCC(C)(C)[C@H]3NC(=O)O[C@@H]2CN3CCC2CC3)cc1F [Example 161, (S)-quinuclidin-3-yl((R)-6-(3-fluoro-4-isopropoxyphenyl)-2,2-dimethyl-1,2,3,4-tetrahydronaphthalen-1-yl)carbamate]
IC50 ([1]; Homo sapiens, Jurkat, 72 h): 4.5 nM
IC50 [2]: 7.41 nM
Kp at 4 h [3]: 3.97
concentration at 4 h [3, 4]: 4840 ng/g
concentration at 4 h [3, 5]: 1240 ng/mL

CC(C)c1cccc(-c2ccc3c(c2)CCC(C)(C)[C@H]3NC(=O)O[C@@H]2CN3CCC2CC3)c1 [Example 162, (S)-quinuclidin-3-yl((R)-6-(3-isopropylphenyl)-2,2-dimethyl-1,2,3,4-tetrahydronaphthalen-1-yl)carbamate]
IC50 ([1]; Homo sapiens, Jurkat, 72 h): 1.4 nM
IC50 [2]: 7.55 nM
Kp at 4 h [3]: 3.71
concentration at 4 h [3, 4]: 3570 ng/g
concentration at 4 h [3, 5]: 967 ng/mL

CC(C)Oc1cccc(-c2ccc3c(c2)CCC(C)(C)[C@H]3NC(=O)O[C@@H]2CN3CCC2CC3)c1 [Example 165, (S)-quinuclidin-3-yl((R)-6-(3-isopropoxyphenyl)-2,2-dimethyl-1,2,3,4-tetrahydronaphthalen-1-yl)carbamate]
IC50 ([1]; Homo sapiens, Jurkat, 72 h): 2.51 nM
IC50 [2]: 0.55 nM
Kp at 4 h [3]: 2.83
concentration at 4 h [3, 4]: 2400 ng/g
concentration at 4 h [3, 5]: 852 ng/mL

CC(C)Oc1ccc(-c2ccc3c(c2)CCC(C)(C)[C@H]3NC(=O)O[C@@H]2CN3CCC2CC3)c(Cl)c1 [Example 168, (S)-quinuclidin-3-yl((R)-6-(2-chloro-4-isopropoxyphenyl)-2,2-dimethyl-1,2,3,4-tetrahydronaphthalen-1-yl)carbamate]
IC50 ([1]; Homo sapiens, Jurkat, 72 h): 0.23 nM
IC50 [2]: 0.188 nM
Kp at 4 h [3]: 1.18
concentration at 4 h [3, 4]: 3370 ng/g
concentration at 4 h [3, 5]: 2890 ng/mL

CCCc1ccc(-c2cc3c(cc2F)[C@H](NC(=O)O[C@@H]2CN4CCC2CC4)C(C)(C)CC3)cc1 [Example 171, (S)-quinuclidin-3-yl((R)-7-fluoro-2,2-dimethyl-6-(4-propylphenyl)-1,2,3,4-tetrahydronaphthalen-1-yl)carbamate]
IC50 ([1]; Homo sapiens, Jurkat, 72 h): 1.4 nM
IC50 [2]: 0.19 nM
Kp at 4 h [3]: 3.88
concentration at 4 h [3, 4]: 2900 ng/g
concentration at 4 h [3, 5]: 748 ng/mL

CCOc1ccc(-c2cc3c(cc2F)[C@H](NC(=O)O[C@@H]2CN4CCC2CC4)C(C)(C)CC3)cc1 [Example 176, (S)-quinuclidin-3-yl((R)-6-(4-ethoxyphenyl)-7-fluoro-2,2-dimethyl-1,2,3,4-tetrahydronaphthalen-1-yl)carbamate]
IC50 ([1]; Homo sapiens, Jurkat, 72 h): 2.1 nM
IC50 [2]: 0.24 nM
Kp at 4 h [3]: 3.58
concentration at 4 h [3, 4]: 4860 ng/g
concentration at 4 h [3, 5]: 1360 ng/mL

COc1c(C)cc(-c2cc3c(cc2F)[C@H](NC(=O)O[C@@H]2CN4CCC2CC4)C(C)(C)CC3)cc1C [Example 180, (S)-quinuclidin-3-yl((R)-7-fluoro-6-(4-methoxy-3,5-dimethylphenyl)-2,2-dimethyl-1,2,3,4-tetrahydronaphthalen-1-yl)carbamate]
IC50 ([1]; Homo sapiens, Jurkat, 72 h): 8 nM
IC50 [2]: 1.32 nM
Kp at 4 h [3]: 1.34
concentration at 4 h [3, 4]: 1510 ng/g
concentration at 4 h [3, 5]: 1140 ng/mL

CCCOc1c(C)cc(-c2cc3c(cc2F)[C@H](NC(=O)O[C@@H]2CN4CCC2CC4)C(C)(C)CC3)cc1C [Example 181, (S)-quinuclidin-3-yl((R)-6-(3,5-dimethyl-4-propoxyphenyl)-7-fluoro-2,2-dimethyl-1,2,3,4-tetrahydronaphthalen-1-yl)carbamate]
IC50 ([1]; Homo sapiens, Jurkat, 72 h): 7.1 nM
IC50 [2]: 1.85 nM
Kp at 4 h [3]: 1.65
concentration at 4 h [3, 4]: 848 ng/g
concentration at 4 h [3, 5]: 510 ng/mL

CC(C)Oc1ccc(-c2cc3c(cc2F)[C@H](NC(=O)O[C@@H]2CN4CCC2CC4)C(C)(C)CC3)cc1Cl [Example 193, (S)-quinuclidin-3-yl((R)-6-(3-chloro-4-isopropoxyphenyl)-7-fluoro-2,2-dimethyl-1,2,3,4-tetrahydronaphthalen-1-yl)carbamate]
IC50 ([1]; Homo sapiens, Jurkat, 72 h): 6.75 nM
IC50 [2]: 0.78 nM
Kp at 4 h [3]: 3.46
concentration at 4 h [3, 4]: 3020 ng/g
concentration at 4 h [3, 5]: 871 ng/mL

COc1ccc(-c2cc3c(cc2F)[C@H](NC(=O)O[C@@H]2CN4CCC2CC4)C(C)(C)CC3)c(F)c1 [Example 194, (S)-quinuclidin-3-yl((R)-7-fluoro-6-(2-fluoro-4-methoxyphenyl)-2,2-dimethyl-1,2,3,4-tetrahydronaphthalen-1-yl)carbamate]
IC50 ([1]; Homo sapiens, Jurkat, 72 h): 4.6 nM
IC50 [2]: 0.41 nM
Kp at 4 h [3]: 1.67
concentration at 4 h [3, 4]: 2100 ng/g
concentration at 4 h [3, 5]: 1260 ng/mL

CC(C)Oc1ccc(-c2cc3c(cc2F)[C@H](NC(=O)O[C@@H]2CN4CCC2CC4)C(C)(C)CC3)cc1 [Example 197, (S)-quinuclidin-3-yl((R)-7-fluoro-6-(4-isopropoxyphenyl)-2,2-dimethyl-1,2,3,4-tetrahydronaphthalen-1-yl)carbamate]
IC50 ([1]; Homo sapiens, Jurkat, 72 h): 0.94 nM
IC50 [2]: 0.2 nM
Kp at 4 h [3]: 3.56
concentration at 4 h [3, 4]: 6690 ng/g
concentration at 4 h [3, 5]: 1880 ng/mL

CC(C)Oc1ccc(-c2cc3c(cc2F)[C@H](NC(=O)O[C@@H]2CN4CCC2CC4)C(C)(C)CC3)cc1F [Example 198, (S)-quinuclidin-3-yl((R)-7-fluoro-6-(3-fluoro-4-isopropoxyphenyl)-2,2-dimethyl-1,2,3,4-tetrahydronaphthalen-1-yl)carbamate]
IC50 ([1]; Homo sapiens, Jurkat, 72 h): 3.2 nM
IC50 [2]: 0.34 nM
Kp at 4 h [3]: 3.46
concentration at 4 h [3, 4]: 5120 ng/g
concentration at 4 h [3, 5]: 1480 ng/mL

(S)-quinuclidin-3-yl((R)-6-(2-chloro-4-isopropoxyphenyl)-7-fluoro-2,2-dimethyl-1,2,3,4-tetrahydronaphthalen-1-yl) carbamate [Example 199]
IC50 ([1]; read-out: IC50): 0.03 nM
IC50 [2, 6]: 0.192 nM
Mean brain-plasma drug ratio at 4 hr [3]: 1.165
Mean drug concentrations in brain tissue at 4 hr [3]: 2689 ng/g
Mean drug concentrations in plasma at 4 hr [3]: 2327.6 ng/mL

(S)-quinuclidin-3-yl((R)-7-fluoro-2,2-dimethyl-6-(4-propoxyphenyl)-1,2,3,4-tetrahydronaphthalen-1-yl) carbamate [Example 177]
IC50 ([1]; read-out: IC50): 0.43 nM
IC50 [2, 6]: 0.25 nM
Mean brain-plasma drug ratio at 4 hr [3]: 5.444
Mean drug concentrations in brain tissue at 4 hr [3]: 4788.9 ng/g
Mean drug concentrations in plasma at 4 hr [3]: 880.7 ng/mL
